Results: the Deep4Chem optical property database
Where “and” joins values, the source holds several entries; their conditions need not be identical. Equal entries are not always repeated.

Assay: solvent given as SMILES

CN(C)c1ccc(/C=C/C=C/c2nc3ccccc3o2)cc1
absorption maximum (in C1COCCO1): 411 nm | absorption maximum (in CC#N): 410 nm | absorption maximum (in CC(C)=O): 409 nm | absorption maximum (in CCCCCC): 401 nm | absorption maximum (in CCCCO): 417 nm | absorption maximum (in CCCO): 417 nm | absorption maximum (in CCO): 417 nm | absorption maximum (in CN(C)C=O): 419 nm | absorption maximum (in CO): 417 nm | absorption maximum (in Cc1ccccc1): 413 nm | absorption maximum (in ClC(Cl)(Cl)Cl): 406 nm | absorption maximum (in ClC(Cl)Cl): 414 nm | absorption maximum (in ClCCl): 415 nm | absorption maximum (in OCC(O)CO): 424 nm | absorption maximum (in OCCO): 424 nm | absorption maximum (in c1ccccc1): 411 nm

COc1ccc(-c2cc(C)nc(-c3ccc(-n4c5ccccc5c5ccccc54)cc3)n2)cc1
absorption maximum (in C1CCOC1): 339 nm | absorption maximum (in CN(C)C=O): 340 nm | absorption maximum (in Cc1ccccc1): 341 nm | absorption maximum (in ClC(Cl)Cl): 342 nm

O=Cc1ccc(/C=C/c2nc(N3CCOCC3)c3c([n+]2[O-])CCCC3)cc1
absorption maximum (in ClCCl): 418 nm

COC1=[N+]2C(=C(c3ccccc3)c3ccc(OC)n3[B-]2(F)F)C=C1SC#N
absorption maximum (in CC#N): 504 nm | absorption maximum (in CCCCCC): 514 nm | absorption maximum (in CCOC(C)=O): 506 nm | absorption maximum (in CO): 497 nm | absorption maximum (in ClCCl): 515 nm

O=Cc1ccc2nc(C#Cc3ccc(N(c4ccccc4)c4ccccc4)cc3)sc2c1
absorption maximum (in Cc1ccccc1): 411 nm

CCN(CC)c1ccc2cc3c(cc2c1)C1(c2ccccc2Oc2ccccc21)c1cc2cc(N(CC)CC)ccc2cc1C3=O
absorption maximum (in CC#N): 452 nm

CCCCOC(=O)c1cc(Oc2ccc(C(C)(C)C)cc2)c2c3c(Cl)cc4c5c(cc(Cl)c(c6c(Oc7ccc(C(C)(C)C)cc7)cc(C(=O)OCCCC)c1c26)c53)C(=O)N(c1c(C(C)C)cccc1C(C)C)C4=O
absorption maximum (in Cc1ccccc1): 529 nm

O=Cc1ccc(-c2ccc(-c3nc4ccccc4s3)c(O)c2)s1
absorption maximum (in CCO): 376 nm

CC1(C)C(/C=C/C2=C(Cl)C(=C/C=C3/N(CCCS(=O)(=O)[O-])c4ccccc4C3(C)C)/CCC2)=[N+](CCCS(=O)(=O)[O-])c2ccccc21
absorption maximum (in CO): 778 nm

F[B-]1(F)n2c(cc(-c3ccccc3)c2-c2ccccc2)C(c2ccccc2)=C2C=C(c3ccccc3)C(c3ccccc3)=[N+]21
absorption maximum (in C1CCOC1): 586 nm | absorption maximum (in CC#N): 576 nm | absorption maximum (in Cc1ccccc1): 592 nm | absorption maximum (in ClCCl): 584 nm

CCCCCCOc1cc(C=O)c(OCCCCCC)cc1C=O
absorption maximum (in ClCCl): 403 nm

Cc1ccc(C#Cc2ccc3ccc4cccc5ccc2c3c45)cc1
absorption maximum (in CCCCCC): 362 nm | absorption maximum (in CCO): 362 nm | absorption maximum (in CCOC(C)=O): 362 nm | absorption maximum (in ClCCl): 365 nm

Cc1ccc([B-]2(c3ccc(C)cc3)n3nc(C(F)(F)F)cc3-c3c4ccccc4cc[n+]32)cc1
absorption maximum (in C1CCCCC1): 377 nm | absorption maximum (in Cc1ccccc1): 377 nm | absorption maximum (in ClCCl): 373 nm

CCOC(=O)c1c(-c2cc3cc(OC)ccc3oc2=O)nn(-c2cccc(C)c2)c1C(=O)OCC
absorption maximum (in ClCCl): 351 nm

CC1(CCCCC(=O)NCCCCCCO)C(/C=C/C=C/C=C2/N(CCCS(=O)(=O)[O-])c3ccc(S(=O)(=O)[O-])cc3C2(C)C)=[N+](CCCS(=O)(=O)[O-])c2ccc(S(=O)(=O)[O-])cc21 (stereo not drawn)
absorption maximum (in O): 651 nm

CCC1=C(CC)c2cccc3c2c(cc2nc4ccccc4nc23)O1
absorption maximum (in ClCCl): 501 nm

CCCCC(CC)Cn1c2cc(C#N)c(-c3ccc(N(c4ccccc4)c4ccccc4)cc3)cc2c2cc(-c3ccc(N(c4ccccc4)c4ccccc4)cc3)c(C#N)cc21 (stereo not drawn)
absorption maximum (in ClCCl): 420 nm

CCCCCCn1c2cc(C=O)sc2c2sc3c(sc4c5sc(C=O)cc5n(CCCCCC)c43)c21
absorption maximum (in ClCCl): 468 nm

CCCCCCCCCCCCN1C(=O)c2c(c3ccc4cc(-c5ccc(OC)cc5)c(OC)cc4c3c3c2ccc2cc(-c4ccc(OC)cc4)c(OC)cc23)C1=O
absorption maximum (in ClCCl): 443 nm

Cc1cc(-c2ccccc2)cc(C)[o+]1
absorption maximum (in CC#N): 326 nm | absorption maximum (in ClCCl): 343 nm

Cc1cccc2[n+]1[B-](F)(F)n1c(c3cccc4cccc1c43)=N2
absorption maximum (in C1CCOC1): 472 nm | absorption maximum (in CC#N): 465 nm | absorption maximum (in CCCCCC): 464 nm | absorption maximum (in Cc1ccccc1): 475 nm | absorption maximum (in ClCCl): 441 nm

CC(C)(C)c1ccc(-c2cc3cc4c(cc(-c5ccc(C(C)(C)C)cc5)p4-c4ccccc4)cc3p2-c2ccccc2)cc1 (stereo not drawn)
absorption maximum (in C1CCOC1): 396 nm

Cc1cc(C#Cc2ccccc2)c2ccc3c(C#Cc4ccccc4)cc(C#Cc4ccccc4)c4ccc1c2c43
absorption maximum (in CS(C)=O): 451 nm | absorption maximum (in ClC(Cl)(Cl)Cl): 445 nm

CN(C)c1ccc(/C=C/c2ncnc3ccccc23)cc1
absorption maximum (in ClCCl): 433 nm

CCCCCCc1cc(-c2ccc3c(c2)C2CCCC2N3c2ccc3c(c2)C(C)(C)c2ccccc2-3)sc1/C=C1\C(=O)c2ccc(C(=O)O)cc2C1=O (stereo not drawn)
absorption maximum (in ClC(Cl)Cl): 611 nm

O=C1C=C(Nc2cccc(F)c2F)C(=O)c2ccccc21
absorption maximum (in CCCCCC): 428 nm | absorption maximum (in CO): 439 nm

C(/C=C/Nc1cccc2ccccc12)=[NH+]c1cccc2ccccc12
absorption maximum (in CS(C)=O): 391 nm

Clc1ccc(N2c3c(sc4ccccc34)Sc3sc4ccccc4c32)cc1
absorption maximum (in ClCCl): 309 nm

Cc1cccc2c1nc1c(=O)n(C)c(=O)nc-1n2C
absorption maximum (in CC#N): 440 nm

c1cc2ccc3cc4cccc5ccc6cc(c1)c2c3c6c54
absorption maximum (in ClCCl): 433 nm

F[B-]1(F)n2c(nc(-c3ccccc3)c2-c2ccccc2)-c2cccc[n+]21
absorption maximum (in C1CCCCC1): 429 nm | absorption maximum (in C1CCOC1): 404 nm | absorption maximum (in C1COCCO1): 387 nm | absorption maximum (in CC#N): 393 nm and 363 nm | absorption maximum (in CCCCCC): 428 nm and 427 nm | absorption maximum (in CO): 391 nm | absorption maximum (in ClC(Cl)Cl): 414 nm and 388 nm | absorption maximum (in ClCCl): 408 nm

CN(C)c1ccc(C#Cc2cc(C#Cc3ccc(C(F)(F)F)cc3)c3ccc4c(C#Cc5ccc(N(C)C)cc5)cc(C#Cc5ccc(C(F)(F)F)cc5)c5ccc2c3c45)cc1
absorption maximum (in ClCCl): 509 nm

Oc1ccccc1-c1nc2c3ccccc3c3ccccc3c2o1
absorption maximum (in Cc1ccccc1): 364 nm

Cc1ccc(N2C(c3ccccc3N(C)C)=NC(c3ccccc3)C2c2ccccc2)cc1 (stereo not drawn)
absorption maximum (in Cc1ccccc1): 275 nm

N#Cc1c(-n2nnc3c2-c2ccccc2CN(C(=O)CCN)c2ccccc2-3)n([C@H]2C[C@H](O)[C@@H](CO)O2)c2ncnc(N)c12
absorption maximum (in CO): 290 nm

N#Cc1ccc(-n2c(-c3ccc(-c4ccc(-c5nc6c7ccccc7c7ccccc7c6n5-c5ccc(C#N)c6ccccc56)cc4)cc3)nc3c4ccccc4c4ccccc4c32)c2ccccc12
absorption maximum (in ClCCl): 340 nm

CC(C)(C)NC(=O)c1ccc(-c2ccccc2)c2ccc3c4ccccc4c4ccccc4c3c12
absorption maximum (in ClCCl): 336 nm

Cc1ccc2ccc3c(C)ccc4ccc1c2c43
absorption maximum (in CCCCCC): 344 nm | absorption maximum (in CO): 344 nm | absorption maximum (in ClCCl): 346 nm

O=S(=O)([O-])c1cccc2c([O-])cccc12
absorption maximum (in O): 346 nm

COC(=O)c1ccc(/C=C2\N=C(c3ccc(OC)c(OC)c3)NC2=O)cc1
absorption maximum (in C1COCCO1): 403 nm

CCCCN1c2ccccc2Sc2cc(/C=C\c3cc(=O)oc4cc(C)ccc34)ccc21
absorption maximum (in ClC(Cl)Cl): 424 nm

NS(=O)(=O)c1ccc(N2N=C(c3ccc(O)cc3)CC2c2ccccc2)cc1 (stereo not drawn)
absorption maximum (in C1CCOC1): 359 nm | absorption maximum (in C1COCCO1): 359 nm | absorption maximum (in CC#N): 358 nm | absorption maximum (in CC(C)O): 357 nm | absorption maximum (in CCO): 357 nm | absorption maximum (in CCOC(C)=O): 357 nm | absorption maximum (in CN(C)C=O): 361 nm | absorption maximum (in CO): 357 nm | absorption maximum (in CS(C)=O): 364 nm | absorption maximum (in O): 359 nm

C(=C\c1ccc(N(c2ccccc2)c2ccccc2)cc1)/c1ccc(-c2cc(-c3ccccn3)nc(-c3ccccn3)c2)cc1
absorption maximum (in C1CCOC1): 382 nm | absorption maximum (in C1COCCO1): 382 nm | absorption maximum (in CC#N): 379 nm | absorption maximum (in CCO): 379 nm | absorption maximum (in ClCCl): 383 nm

c1ccc(-c2ccc(-c3ccc(-n4c5ccccc5c5ccccc54)cc3)c3nsnc23)cc1
absorption maximum (in C1CCOC1): 394 nm | absorption maximum (in CC(C)=O): 382 nm | absorption maximum (in CCCCCC): 394 nm | absorption maximum (in CCOCC): 392 nm

C#Cn1c(-c2cc(-c3nc4ccccc4n3C#C)cc(-c3nc4ccccc4n3C#C)c2)nc2ccccc21
absorption maximum (in ClCCl): 305.5 nm

COc1ccc(-c2cc(-c3ccc(C#N)cc3)nn2C)cc1
absorption maximum (in ClCCl): 281 nm

COC1=C/C(=C\C=C2C=CN(Cc3ccc(Br)cc3)C=C2)C=CC1=O
absorption maximum (in CC#N): 617 nm | absorption maximum (in CC(C)=O): 624 nm | absorption maximum (in CC(C)CO): 576 nm | absorption maximum (in CC(C)O): 585 nm | absorption maximum (in CCC#N): 620 nm | absorption maximum (in CCCCCCO): 584 nm | absorption maximum (in CCCCCO): 588 nm | absorption maximum (in CCCCO): 576 nm | absorption maximum (in CCCO): 577 nm | absorption maximum (in CCO): 568 nm | absorption maximum (in CN(C)C=O): 621 nm | absorption maximum (in CN(C)P(=O)(N(C)C)N(C)C): 629 nm | absorption maximum (in CO): 537 nm | absorption maximum (in CS(C)=O): 619 nm

CCN(CC)c1ccc2cc(-c3ccc(-c4ccc5c6ccccc6c6c7cc(-c8ccc(-c9cc%10ccc(N(CC)CC)cc%10oc9=O)cc8)ccc7c7ccccc7c6c5c4)cc3)c(=O)oc2c1
absorption maximum (in ClC(Cl)Cl): 412 nm

CCCCCCn1c2c(c3ccccc31)-c1c(c3ccccc3n1CCCCCC)-c1c(c3ccccc3n1CCCCCC)-c1c-2c2ccccc2n1CCCCCC
absorption maximum (in ClCCl): 312 nm

CN(C)c1ccc(-c2nc3ccccc3n2-c2ccccc2)cc1
absorption maximum (in CC#N): 325 nm

Cc1ccc(C(=O)/C=C2\C(=O)Nc3ccccc32)cc1C
absorption maximum (in C1CCCCC1): 335 nm | absorption maximum (in C1COCCO1): 335 nm | absorption maximum (in CCCCCC): 333 nm | absorption maximum (in CCOC(C)=O): 335 nm | absorption maximum (in CN(C)C=O): 338 nm | absorption maximum (in ClCCl): 336 nm | absorption maximum (in O): 338 nm

CSC1=C(C)C2=C(c3ccc(C)cc3)c3c(C)c(Cl)c(C)n3[B-](F)(F)[N+]2=C1C
absorption maximum (in C1CCOC1): 518 nm
